Here are results for 1 molecule from patent US20230346743A1, “COMBINATION CANCER THERAPIES” (The Board of Regents of the University of Oklahoma, priority 2018, published 2023).

SMILES strings stand for the structures.

One test has as its system NCI 60-cell line panel. The conditions noted are these: cited from earlier work.
Another test has as its system p53. Nature of the test: p53 cellular localization (immunofluorescence, Western blots of fractions) in ovarian cancer cell lines. In kind it is cell-based, human. To be noted: A2780 and OV90 ovarian cancer cell lines. As to the method:
Cytoplasmic and nuclear protein fractions were isolated from cultures using NE-PER Nuclear and Cytoplasmic Extraction Reagents (ThermoFisher, Waltham, MA, USA) and the Mitochondria/Cytosol Fractionation Kit (ThermoFisher, Waltham, MA, USA) and protein concentrations determined with BCA reagent (ThermoFisher, Waltham, MA, USA).
Proteins were extracted from cell cultures using M-PER mammalian protein extraction reagent (ThermoFisher, Waltham, MA, USA) and volumes corresponding to 30 µg determined with BCA reagent (ThermoFisher, Waltham, MA, USA) were electrophoresed into a SDS-PAGE gel and transferred to PVDF membranes. Membranes were blocked (5% dry skim milk powder in TBST buffer) for at least 1 h or overnight, washed thrice with TBST and then incubated with primary antibody: p53 DO-1, β-actin, histone H3, GAPDH (Santa Cruz Biotechnology, Dallas, TX, USA) and mortalin, Tom20, V5 tag antibodies, p21, PARP, SLC7A11, caspase 3 (Cell Signaling Technology, Danvers, MA, USA) for at least 1 h or overnight. After three washes, membranes were incubated with anti-mouse HRP conjugated (Santa Cruz Biotechnology, Dallas, TX, USA) or anti-Rabbit HRP conjugated (Cell Signaling Technology, Danvers, MA, USA) for 40 min. Membranes then were washed and developed with ECL reagents (BioRad, Hercules, CA, USA). Bands were imaged and quantified (ChemiDoc imaging system with Image Lab Software/BioRad). […]
(In general: Immunoblotting shows a protein as a band on a membrane.)

A further test deals with Cervical Cancer. Put plainly: Dose reduction index at various fold effects in cervical cancer. In kind it is cell-based, human. The conditions noted are these: cell line not named. The source says: Combination Indices (CI's) were derived to determine the level of synergy using the Chow and Talalay method. […] The Dose Reduction Indices (DRIs) were derived to determine the level of reduction for one drug that could be allowed by addition of the second drug at various fold effects (Fas) of the combination treatment (Table 16).

The subject of test [1] is MESOV human ovarian cancer cells. Nature of the test: Tumor establishment after intraperitoneal injection of MESOV cells (secondary chemoprevention model). The test is classed as in vivo. To be noted: nu/nu mice, MESOV i.p. The protocol: Four-week-old female athymic nude mice (NCr-Foxn1^nu) were obtained from Taconic Biosciences under an approved Institutional Animal Care and Use Committee (IACUC) protocol. Mice were acclimatized for two weeks, fed with a standard diet and ear tagged during the acclimatization period. The timing to tumor development after intraperitoneal injection with various amounts of MESOV cells was determined in a pilot study prior. In the intervention experiment, 6-week-old mice were injected with 20 million MESOV human ovarian cancer cells in their intraperitoneal region. Drug treatment was initiated 4 weeks after the injection of cancer cells. Mice were randomized to four treatment groups before the start of treatment based on their body weight. There was no significant (one-way ANOVA, p >0.999) difference in body weight between groups at the start of treatment. Twelve mice were allocated to each group based on the power analysis performed while designing experiment. […] Controls were gavaged with Kolliphor HS15 (30% in water). […] (10 mg/kg) was dissolved in phosphate buffered saline and injected into the peritoneum of mice every other day. Initially SHetA2 dosing was administered every day for two weeks in SHetA2 alone and drug combination groups, and then switched to every other day for the next three weeks due to the stress caused to the mice by daily gavage. Oral gavaging was performed with sterile disposable plastic feeding tubes 20 ga × 38 mm (Instech Laboratories, Inc., Plymouth Meeting, PA, USA). Three mice in the drug combination group died after two weeks of drug treatment due to gavaging incidents. Body weights were recorded and animal health was monitored weekly. After the end of drug intervention period, all mice were euthanized by CO2 asphyxiation followed by exsanguination, their tumors and other vital organs were collected for further analysis. After measuring the total tumor weight, a portion of the tumors were snap frozen in liquid nitrogen and another portion was formalin fixed. The formalin fixed tissue samples were paraffin embedded, sectioned and stained with hematoxylin and eosins for histology studies. An experienced pathologist reviewed blinded histology slides for kidney and liver toxicity. Presence or absence of tumor at the end of the treatment period was used as the primary outcome measure. […] Two by two logistic regression was used to compare the four treatment groups (Untreated control, SHetA2, […] combination) in the study. Mice in the first 3 groups had complete data, while 3 mice in the combo group died early and had zero tumor weights. […]

Turning to `CC1(C)CC(C)(C)c2cc(NC(=S)Nc3ccc([N+](=O)[O-])cc3)ccc2S1` [SHetA2], the “Activity against cancer cell lines” value in the test on NCI 60-cell line panel is given as “active against all cancers present in the NCI 60-cell line panel”. For the same molecule, the “p53 in nuclei (immunofluorescent imaging)” value with p53 is “dose-dependent elevation of both wild type and mutant p53 in nuclei”. The “SHetA2 Dose” value with Cervical Cancer (Fold Effect (Fa) 0.05) worked out at 5.44; with Cervical Cancer (Fold Effect (Fa) 0.75), 8.23; in the test on Cervical Cancer (Fold Effect (Fa) 0.90), 12.43; in the test with Cervical Cancer (Fold Effect (Fa) 0.95), 16.47. In addition, in test [1], the “OR for preventing tumor development (additive logistic regression model)” value is on record as 10.384. Also, in test [1] (SHetA2 60 mg/kg gavage, PRIMA-1^MET 10 mg/kg i.p., treatment from day 28 for 38 days), the Tumor-free rates was determined as 42%.
